Experimental data from article PMC6009956, “Design, synthesis and biological activity of N^4-phenylsubstituted-7H-pyrrolo[2,3-d]pyrimidin-4-amines as dual inhibitors of aurora kinase A and epidermal growth factor receptor kinase” (Journal of Enzyme Inhibition and Medicinal Chemistry, 2017).
Where two headings read alike, the source gives them in different places.

What was measured:
EGFR = EGFR (Homo sapiens, UniProt P00533); experiment: ADP-Glo kinase assay, EGFR; assay type: biochemical; set-up: purchased BPS Bioscience (assay run externally by the vendor)
EGFR, sequence (P00533 25-1210): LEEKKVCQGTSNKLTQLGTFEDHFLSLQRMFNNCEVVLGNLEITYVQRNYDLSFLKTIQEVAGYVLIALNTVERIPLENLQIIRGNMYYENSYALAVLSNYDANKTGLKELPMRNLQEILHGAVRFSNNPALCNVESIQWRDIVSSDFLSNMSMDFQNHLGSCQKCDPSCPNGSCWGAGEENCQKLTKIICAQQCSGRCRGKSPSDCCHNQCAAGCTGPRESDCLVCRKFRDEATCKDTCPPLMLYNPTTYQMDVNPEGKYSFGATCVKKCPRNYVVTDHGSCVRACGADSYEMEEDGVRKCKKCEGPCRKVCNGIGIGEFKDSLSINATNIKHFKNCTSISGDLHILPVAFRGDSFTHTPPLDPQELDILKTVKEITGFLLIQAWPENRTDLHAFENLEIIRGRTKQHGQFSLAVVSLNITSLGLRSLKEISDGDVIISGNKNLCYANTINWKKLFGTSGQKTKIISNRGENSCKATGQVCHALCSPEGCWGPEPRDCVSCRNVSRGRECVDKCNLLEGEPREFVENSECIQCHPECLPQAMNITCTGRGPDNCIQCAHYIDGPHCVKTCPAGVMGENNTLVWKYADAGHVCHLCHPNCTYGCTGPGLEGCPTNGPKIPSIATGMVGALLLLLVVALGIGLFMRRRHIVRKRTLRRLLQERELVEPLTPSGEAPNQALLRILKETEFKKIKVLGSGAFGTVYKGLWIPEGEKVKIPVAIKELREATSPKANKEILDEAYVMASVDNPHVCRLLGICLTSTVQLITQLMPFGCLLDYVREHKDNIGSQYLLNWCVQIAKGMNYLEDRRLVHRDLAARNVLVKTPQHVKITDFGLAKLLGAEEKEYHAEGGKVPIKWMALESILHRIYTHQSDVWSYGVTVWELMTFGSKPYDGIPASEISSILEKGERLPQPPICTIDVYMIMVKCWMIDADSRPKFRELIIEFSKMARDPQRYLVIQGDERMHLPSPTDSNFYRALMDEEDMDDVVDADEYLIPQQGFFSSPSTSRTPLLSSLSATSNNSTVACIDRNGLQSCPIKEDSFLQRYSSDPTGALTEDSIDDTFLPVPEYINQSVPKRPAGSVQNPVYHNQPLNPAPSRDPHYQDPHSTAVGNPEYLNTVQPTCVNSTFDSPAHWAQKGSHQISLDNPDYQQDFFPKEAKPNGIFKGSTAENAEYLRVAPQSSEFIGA

aurora A kinase (AURKA) = molecular target: T1, aurora A kinase (AURKA) (Homo sapiens, UniProt O14965); experiment: ADP-Glo kinase assay, Aurora A; assay type: biochemical
T1 construct: purchased BPS Bioscience (assay run externally by the vendor)
T1 sequence (O14965 1-403): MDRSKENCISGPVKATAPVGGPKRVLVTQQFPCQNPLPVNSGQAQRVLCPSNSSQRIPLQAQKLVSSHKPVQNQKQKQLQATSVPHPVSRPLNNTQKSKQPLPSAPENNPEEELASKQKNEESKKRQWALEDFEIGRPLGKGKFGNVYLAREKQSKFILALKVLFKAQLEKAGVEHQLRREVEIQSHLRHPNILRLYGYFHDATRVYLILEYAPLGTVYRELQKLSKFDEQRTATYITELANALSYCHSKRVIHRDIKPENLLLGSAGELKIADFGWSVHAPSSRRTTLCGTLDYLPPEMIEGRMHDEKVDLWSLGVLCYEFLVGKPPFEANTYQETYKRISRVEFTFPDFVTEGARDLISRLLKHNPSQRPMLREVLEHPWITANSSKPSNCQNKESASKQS

[1] = 10 µM ATP, triplicate, read-out: EGFR IC50 ± SD
[2] = 10 µM ATP/0.2 mg/ml Poly-Glu-Tyr, read-out: EGFR IC50 (dose-response curve, supplement)
[3] = 10 µM ATP, triplicate, read-out: AURKA IC50 ± SD
[4] = 10 µM ATP/0.2 mg/ml Kemptide, read-out: Aurora A IC50 (dose-response curve, supplement)

Compound: Cc1ccccc1Nc1ncnc2[nH]ccc12 [Compound 15, N^4-(2-methylphenyl)-7H-pyrrolo[2,3-d]pyrimidin-4-amine]
- IC50 (EGFR; [1]): 1.23 ± 0.201 µM
- IC50 (EGFR; [2]): 1.2 µM
- EGFR % Activity Set1 (EGFR; Log[nM] 0): 97%
- EGFR % Activity Set2 (EGFR; Log[nM] 0): 98%
- EGFR % Activity Set3 (EGFR; Log[nM] 0): 121%
- EGFR % Activity Set1 (EGFR; Log[nM] 1.0): 109%
- EGFR % Activity Set2 (EGFR; Log[nM] 1.0): 101%
- EGFR % Activity Set3 (EGFR; Log[nM] 1.0): 128%
- EGFR % Activity Set1 (EGFR; Log[nM] 1.5): 113%
- EGFR % Activity Set2 (EGFR; Log[nM] 1.5): 108%
- EGFR % Activity Set3 (EGFR; Log[nM] 1.5): 122%
- EGFR % Activity Set1 (EGFR; Log[nM] 2.0): 111%
- EGFR % Activity Set2 (EGFR; Log[nM] 2.0): 102%
- EGFR % Activity Set3 (EGFR; Log[nM] 2.0): 99%
- EGFR % Activity Set1 (EGFR; Log[nM] 2.5): 77%
- EGFR % Activity Set2 (EGFR; Log[nM] 2.5): 82%
- EGFR % Activity Set3 (EGFR; Log[nM] 2.5): 84%
- EGFR % Activity Set1 (EGFR; Log[nM] 3.0): 55%
- EGFR % Activity Set2 (EGFR; Log[nM] 3.0): 59%
- EGFR % Activity Set3 (EGFR; Log[nM] 3.0): 52%
- EGFR % Activity Set1 (EGFR; Log[nM] 3.5): 20%
- EGFR % Activity Set2 (EGFR; Log[nM] 3.5): 24%
- EGFR % Activity Set3 (EGFR; Log[nM] 3.5): 23%
- EGFR % Activity Set1 (EGFR; Log[nM] 4.0): 12%
- EGFR % Activity Set2 (EGFR; Log[nM] 4.0): 12%
- EGFR % Activity Set3 (EGFR; Log[nM] 4.0): 10%
- EGFR % Activity Set1 (EGFR; Log[nM] 4.5): 4%
- EGFR % Activity Set2 (EGFR; Log[nM] 4.5): 5%
- EGFR % Activity Set3 (EGFR; Log[nM] 4.5): 4%
- EGFR % Activity Set1 (EGFR; Log[nM] 5.0): 4%
- EGFR % Activity Set2 (EGFR; Log[nM] 5.0): 3%
- EGFR % Activity Set3 (EGFR; Log[nM] 5.0): 3%
- IC50 (aurora A kinase (AURKA); [3]): 8.56 ± 1.74 µM
- IC50 (aurora A kinase (AURKA); [4]): 8.5 µM
- Aurora A % Activity Set1 (aurora A kinase (AURKA); Log[nM] 0): 95%
- Aurora A % Activity Set2 (aurora A kinase (AURKA); Log[nM] 0): 97%
- Aurora A % Activity Set3 (aurora A kinase (AURKA); Log[nM] 0): 102%
- Aurora A % Activity Set1 (aurora A kinase (AURKA); Log[nM] 1.0): 102%
- Aurora A % Activity Set2 (aurora A kinase (AURKA); Log[nM] 1.0): 103%
- Aurora A % Activity Set3 (aurora A kinase (AURKA); Log[nM] 1.0): 102%
- Aurora A % Activity Set1 (aurora A kinase (AURKA); Log[nM] 1.5): 105%
- Aurora A % Activity Set2 (aurora A kinase (AURKA); Log[nM] 1.5): 105%
- Aurora A % Activity Set3 (aurora A kinase (AURKA); Log[nM] 1.5): 107%
- Aurora A % Activity Set1 (aurora A kinase (AURKA); Log[nM] 2.0): 98%
- Aurora A % Activity Set2 (aurora A kinase (AURKA); Log[nM] 2.0): 107%
- Aurora A % Activity Set3 (aurora A kinase (AURKA); Log[nM] 2.0): 109%
- Aurora A % Activity Set1 (aurora A kinase (AURKA); Log[nM] 2.5): 103%
- Aurora A % Activity Set2 (aurora A kinase (AURKA); Log[nM] 2.5): 103%
- Aurora A % Activity Set3 (aurora A kinase (AURKA); Log[nM] 2.5): 107%
- Aurora A % Activity Set1 (aurora A kinase (AURKA); Log[nM] 3.0): 92%
- Aurora A % Activity Set2 (aurora A kinase (AURKA); Log[nM] 3.0): 102%
- Aurora A % Activity Set3 (aurora A kinase (AURKA); Log[nM] 3.0): 98%
- Aurora A % Activity Set1 (aurora A kinase (AURKA); Log[nM] 3.5): 66%
- Aurora A % Activity Set2 (aurora A kinase (AURKA); Log[nM] 3.5): 73%
- Aurora A % Activity Set3 (aurora A kinase (AURKA); Log[nM] 3.5): 70%
- Aurora A % Activity Set1 (aurora A kinase (AURKA); Log[nM] 4.0): 44%
- Aurora A % Activity Set2 (aurora A kinase (AURKA); Log[nM] 4.0): 48%
- Aurora A % Activity Set3 (aurora A kinase (AURKA); Log[nM] 4.0): 48%
- Aurora A % Activity Set1 (aurora A kinase (AURKA); Log[nM] 4.5): 18%
- Aurora A % Activity Set2 (aurora A kinase (AURKA); Log[nM] 4.5): 18%
- Aurora A % Activity Set3 (aurora A kinase (AURKA); Log[nM] 4.5): 19%
- Aurora A % Activity Set1 (aurora A kinase (AURKA); Log[nM] 5.0): 11%
- Aurora A % Activity Set2 (aurora A kinase (AURKA); Log[nM] 5.0): 11%
- Aurora A % Activity Set3 (aurora A kinase (AURKA); Log[nM] 5.0): 11%

Compound: Clc1cccc(Nc2ncnc3[nH]ccc23)c1 [Compound 11, N^4-(3-chlorophenyl)-7H-pyrrolo[2,3-d]pyrimidin-4-amine]
- EGFR inhibition (in words) (EGFR): single-digit nanomolar EGFR inhibition
- IC50 (EGFR; [1]): 0.00663 ± 0.00098 µM
- IC50 (EGFR; [2]): 0.0065 µM
- EGFR % Activity Set1 (EGFR; Log[nM] 0): 66%
- EGFR % Activity Set2 (EGFR; Log[nM] 0): 62%
- EGFR % Activity Set3 (EGFR; Log[nM] 0): 63%
- EGFR % Activity Set1 (EGFR; Log[nM] 1.0): 36%
- EGFR % Activity Set2 (EGFR; Log[nM] 1.0): 34%
- EGFR % Activity Set3 (EGFR; Log[nM] 1.0): 39%
- EGFR % Activity Set1 (EGFR; Log[nM] 1.5): 17%
- EGFR % Activity Set2 (EGFR; Log[nM] 1.5): 16%
- EGFR % Activity Set3 (EGFR; Log[nM] 1.5): 20%
- EGFR % Activity Set1 (EGFR; Log[nM] 2.0): 8%
- EGFR % Activity Set2 (EGFR; Log[nM] 2.0): 7%
- EGFR % Activity Set3 (EGFR; Log[nM] 2.0): 11%
- EGFR % Activity Set1 (EGFR; Log[nM] 2.5): 6%
- EGFR % Activity Set2 (EGFR; Log[nM] 2.5): 4%
- EGFR % Activity Set3 (EGFR; Log[nM] 2.5): 6%
- EGFR % Activity Set1 (EGFR; Log[nM] 3.0): 3%
- EGFR % Activity Set2 (EGFR; Log[nM] 3.0): 1%
- EGFR % Activity Set3 (EGFR; Log[nM] 3.0): 2%
- EGFR % Activity Set1 (EGFR; Log[nM] 3.5): 2%
- EGFR % Activity Set2 (EGFR; Log[nM] 3.5): 0%
- EGFR % Activity Set3 (EGFR; Log[nM] 3.5): 0%
- EGFR % Activity Set1 (EGFR; Log[nM] 4.0): 1%
- EGFR % Activity Set2 (EGFR; Log[nM] 4.0): 0%
- EGFR % Activity Set3 (EGFR; Log[nM] 4.0): 0%
- EGFR % Activity Set1 (EGFR; Log[nM] 4.5): 0%
- EGFR % Activity Set2 (EGFR; Log[nM] 4.5): 0%
- EGFR % Activity Set3 (EGFR; Log[nM] 4.5): 0%
- EGFR % Activity Set1 (EGFR; Log[nM] 5.0): 0%
- EGFR % Activity Set2 (EGFR; Log[nM] 5.0): 0%
- EGFR % Activity Set3 (EGFR; Log[nM] 5.0): 0%
- IC50 (aurora A kinase (AURKA); [3]): 3.13 ± 0.75 µM
- IC50 (aurora A kinase (AURKA); [4]): 3.1 µM
- Aurora A % Activity Set1 (aurora A kinase (AURKA); Log[nM] 0): 99%
- Aurora A % Activity Set2 (aurora A kinase (AURKA); Log[nM] 0): 100%
- Aurora A % Activity Set3 (aurora A kinase (AURKA); Log[nM] 0): 90%
- Aurora A % Activity Set1 (aurora A kinase (AURKA); Log[nM] 1.0): 109%
- Aurora A % Activity Set2 (aurora A kinase (AURKA); Log[nM] 1.0): 95%
- Aurora A % Activity Set3 (aurora A kinase (AURKA); Log[nM] 1.0): 101%
- Aurora A % Activity Set1 (aurora A kinase (AURKA); Log[nM] 1.5): 102%
- Aurora A % Activity Set2 (aurora A kinase (AURKA); Log[nM] 1.5): 108%
- Aurora A % Activity Set3 (aurora A kinase (AURKA); Log[nM] 1.5): 96%
- Aurora A % Activity Set1 (aurora A kinase (AURKA); Log[nM] 2.0): 94%
- Aurora A % Activity Set2 (aurora A kinase (AURKA); Log[nM] 2.0): 104%
- Aurora A % Activity Set3 (aurora A kinase (AURKA); Log[nM] 2.0): 107%
- Aurora A % Activity Set1 (aurora A kinase (AURKA); Log[nM] 2.5): 95%
- Aurora A % Activity Set2 (aurora A kinase (AURKA); Log[nM] 2.5): 98%
- Aurora A % Activity Set3 (aurora A kinase (AURKA); Log[nM] 2.5): 99%
- Aurora A % Activity Set1 (aurora A kinase (AURKA); Log[nM] 3.0): 80%
- Aurora A % Activity Set2 (aurora A kinase (AURKA); Log[nM] 3.0): 85%
- Aurora A % Activity Set3 (aurora A kinase (AURKA); Log[nM] 3.0): 84%
- Aurora A % Activity Set1 (aurora A kinase (AURKA); Log[nM] 3.5): 42%
- Aurora A % Activity Set2 (aurora A kinase (AURKA); Log[nM] 3.5): 48%
- Aurora A % Activity Set3 (aurora A kinase (AURKA); Log[nM] 3.5): 49%
- Aurora A % Activity Set1 (aurora A kinase (AURKA); Log[nM] 4.0): 19%
- Aurora A % Activity Set2 (aurora A kinase (AURKA); Log[nM] 4.0): 22%
- Aurora A % Activity Set3 (aurora A kinase (AURKA); Log[nM] 4.0): 19%
- Aurora A % Activity Set1 (aurora A kinase (AURKA); Log[nM] 4.5): 8%
- Aurora A % Activity Set2 (aurora A kinase (AURKA); Log[nM] 4.5): 9%
- Aurora A % Activity Set3 (aurora A kinase (AURKA); Log[nM] 4.5): 8%
- Aurora A % Activity Set1 (aurora A kinase (AURKA); Log[nM] 5.0): 5%
- Aurora A % Activity Set2 (aurora A kinase (AURKA); Log[nM] 5.0): 4%
- Aurora A % Activity Set3 (aurora A kinase (AURKA); Log[nM] 5.0): 3%
